Series [1] deals with Smn protein in SMA patient fibroblast cells (GM03813). The series is described as follows: Smn protein assay in cultured cells (SMN HTRF). It is filed as cell-based, human. As to conditions: SMA patient fibroblast cells, 48 hours; for EC1.5x for Smn protein expression: 7-point concentration curve, SMN HTRF, concentration producing 1.5 times Smn protein vs DMSO vehicle control; for maximum fold (Fold) increase of Smn protein: 7-point concentration data, fold relative to vehicle control. Put shortly: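 SMA patient fibroblasts (5,000 cells/well, DMEM-10% FBS) were treated for 48 h at 37 °C with a 7-point, 3.16-fold dilution series in triplicate. RIPA lysates were probed by HTRF (anti-SMN d2/kryptate, overnight, room temperature), reading 665/620 nm. EC1.5× is the concentration giving 1.5-fold Smn over DMSO vehicle.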

In series [2] the test system is SMN2 minigene mRNA (SMN2-A minigene) in HEK293H cells. Put plainly: SMN2 minigene mRNA splicing RT-qPCR assay in cultured cells. It is filed as cell-based, human. As to conditions: Homo sapiens, HEK293-H; concentration increasing full length SMN2 mRNA 1.5-fold relative to vehicle-treated cells; HEK293H cells with SMN2-A minigene, 24 hours, 7-point concentration data; read-out: EC1.5x for production of full length SMN2 mRNA. A digest of the protocol: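 HEK293H cells stably carrying the SMN2-A minigene were treated for 24 h at 37 °C with a 7-point, 3.16-fold dilution series of compound. Multiplex RT-qPCR measured exon 7-containing minigene FL mRNA against GAPDH, expressed relative to vehicle by modified ΔΔCt; the EC1.5× is the concentration giving a 1.5-fold increase.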
A general note: Quantitative PCR measures a nucleic acid by following its amplification.

The melting point is the temperature, or range, at which the solid turns liquid.

In turn, `COc1ccc(-c2cc(=O)n3cc(C4=CCN(C)CC4)ccc3n2)cc1OC` [Cpd 188, 2-(3,4-dimethoxyphenyl)-7-(1-methyl-1,2,3,6-tetrahydropyridin-4-yl)-4H-pyrido[1,2-a]pyrimidin-4-one] displayed a melting point of 165 to 168 °C. Besides, in series [1], the “EC1.5x for Smn protein expression” value was “*** (an EC1.5× between >0.3 μM and ≤1 μM is indicated by three stars (***))”; the “maximum fold (Fold) increase of Smn protein” value (“maximum fold (Fold) increase” below) is “***** (a fold increase >1.65 is indicated by five stars (*****))”. Further, in series [2], the EC (1.5-fold increase) lay within 0.1 to 0.3 µM.

`C[C@H]1CN(c2ccc3nc(-c4cnn(C)c4)cc(=O)n3c2)CCN1` [Cpd 191, 7-[(3S)-3-methylpiperazin-1-yl]-2-(1-methyl-1H-pyrazol-4-yl)-4H-pyrido[1,2-a]pyrimidin-4-one]: the melting point was 168 to 170 °C. Also, in series [1], the “EC1.5x for Smn protein expression” value was “** (an EC1.5× between >1 μM and ≤3 μM is indicated by two stars (**))”; the “maximum fold (Fold) increase” value was “**** (a fold increase between >1.5 and ≤1.65 is indicated by four stars (****))”. Also, the EC (1.5-fold increase) in series [2] was in the range of 1 to 3 µM.

In the case of `Cc1cn2cc(-c3cc(=O)n4cc(N5CCNCC5)ccc4n3)cc(F)c2n1` [Cpd 209, 2-(8-fluoro-2-methylimidazo[1,2-a]pyridin-6-yl)-7-(piperazin-1-yl)-4H-pyrido[1,2-a]pyrimidin-4-one], the melting point was in the range of 282 to 288 °C. For the same compound, in series [1], the “EC1.5x for Smn protein expression” value is reported as “**** (an EC1.5x≤0.3 μM is indicated by four stars (****))”; the “maximum fold (Fold) increase” value was “**** (a fold increase between >1.5 and ≤1.65 is indicated by four stars (****))”. For the same compound, in series [2], the EC (1.5-fold increase) is less than 0.1 µM.

For the compound `COc1ccc(-c2ccc3nc(N4CCNCC4)cc(=O)n3c2)cc1F` [Cpd 220, 7-(3-fluoro-4-methoxyphenyl)-2-(piperazin-1-yl)-4H-pyrido[1,2-a]pyrimidin-4-one], the melting point was 202 to 206 °C. Further, the “maximum fold (Fold) increase” value in series [1] was “** (a fold increase between >1.2 and ≤1.35 is indicated by two stars (**))”. For the same compound, the EC (1.5-fold increase) in series [2] was 0.3 to 1 µM.

In turn, `COc1ccc(-c2cc(=O)n3cc(OC4CCNCC4)ccc3n2)cc1OC` [Cpd 237, 2-(3,4-dimethoxyphenyl)-7-(piperidin-4-yloxy)-4H-pyrido[1,2-a]pyrimidin-4-one] showed a melting point of 221 to 224 °C. The “maximum fold (Fold) increase” value in series [1] is “*** (a fold increase between >1.35 and ≤1.5 is indicated by three stars (***))”. Moreover, the EC (1.5-fold increase) in series [2] is 1 to 3 µM.

As to `COc1ccc(-c2cc(=O)n3cc(N(C)[C@@H]4CCN(C)C4)ccc3n2)cc1F` [Cpd 239, 2-(3-fluoro-4-methoxyphenyl)-7-{methyl[(3R)-1-methylpyrrolidin-3-yl]amino}-4H-pyrido[1,2-a]pyrimidin-4-one], the melting point lay in the range of 143 to 149 °C. Besides, in series [1], the “maximum fold (Fold) increase” value was “* (A maximum fold increase of ≤1.2 is indicated by one star (*))”. Further, the EC (1.5-fold increase) in series [2] lay within 1 to 3 µM.

Take `COc1ccc(-c2cc(=O)n3cc(C4=CCNCC4)ccc3c2)cc1OC` [Cpd 245, 2-(3,4-dimethoxyphenyl)-7-(1,2,3,6-tetrahydropyridin-4-yl)-4H-quinolizin-4-one]: the melting point is 174 to 176 °C. In addition, in series [1], the “maximum fold (Fold) increase” value is “** (a fold increase between >1.2 and ≤1.35 is indicated by two stars (**))”. The EC (1.5-fold increase) in series [2] fell in the range of 0.3 to 1 µM.

`COc1ccc(-c2cc(=O)n3cc(C4=CCN(C)CC4)ccc3c2)cc1OC` [Cpd 249, 2-(3,4-dimethoxyphenyl)-7-(1-methyl-1,2,3,6-tetrahydropyridin-4-yl)-4H-quinolizin-4-one]: the melting point is 194 to 196 °C. For the same compound, the “maximum fold (Fold) increase” value in series [1] was “* (A maximum fold increase of ≤1.2 is indicated by one star (*))”. Besides, the EC (1.5-fold increase) in series [2] fell in the range of 0.3 to 1 µM.

In turn, `COc1ccc(-c2cc(=O)n3cc(C4=CCCNC4)ccc3n2)cc1OC` [Cpd 263, 2-(3,4-dimethoxyphenyl)-7-(1,2,5,6-tetrahydropyridin-3-yl)-4H-pyrido[1,2-a]pyrimidin-4-one] displayed a melting point of 146 to 150 °C. For the same compound, in series [1], the “EC1.5x for Smn protein expression” value was “*** (an EC1.5× between >0.3 μM and ≤1 μM is indicated by three stars (***))”; the “maximum fold (Fold) increase” value is “**** (a fold increase between >1.5 and ≤1.65 is indicated by four stars (****))”. Further, the EC (1.5-fold increase) in series [2] was in the range of 0.3 to 1 µM.

The compound `COc1ccc(-c2ccc3nc(N4CCC(N)CC4)cc(=O)n3c2)cc1F` [Cpd 276, 2-(4-aminopiperidin-1-yl)-7-(3-fluoro-4-methoxyphenyl)-4H-pyrido[1,2-a]pyrimidin-4-one] returned a melting point of 268 to 283 °C. The “maximum fold (Fold) increase” value in series [1] was “* (A maximum fold increase of ≤1.2 is indicated by one star (*))”. Besides, in series [2], the EC (1.5-fold increase) lay within 0.3 to 1 µM.

Compound `COc1ccc(-c2ccc3nc(C4=CCNCC4)cc(=O)n3c2)cc1F` [Cpd 294, 7-(3-fluoro-4-methoxyphenyl)-2-(1,2,3,6-tetrahydropyridin-4-yl)-4H-pyrido[1,2-a]pyrimidin-4-one] yielded a melting point of 188 to 192 °C. In series [1], the “EC1.5x for Smn protein expression” value is “* (An EC1.5× for Smn protein expression between >3 μM and ≤10 μM is indicated by one star (*))”; the “maximum fold (Fold) increase” value was “*** (a fold increase between >1.35 and ≤1.5 is indicated by three stars (***))”. Further, the EC (1.5-fold increase) in series [2] was less than 0.1 µM.

`Cc1nc2c(F)cc(-c3cc(=O)n4cc(N5CCN[C@@H](C)C5)ccc4n3)cc2o1` [Cpd 306, 2-(4-fluoro-2-methyl-1,3-benzoxazol-6-yl)-7-[(3S)-3-methylpiperazin-1-yl]-4H-pyrido[1,2-a]pyrimidin-4-one] came in with a melting point of 207 to 209 °C. Besides, in series [1], the “EC1.5x for Smn protein expression” value was “**** (an EC1.5x≤0.3 μM is indicated by four stars (****))” and the “maximum fold (Fold) increase” value is recorded as “***** (a fold increase >1.65 is indicated by five stars (*****))”. Further, the EC (1.5-fold increase) in series [2] is less than 0.1 µM.

`Cc1nc2ccc(-c3cc(=O)n4cc(N5CCN[C@@H](C)C5)ccc4c3)cc2o1` [Cpd 322, 2-(2-methyl-1,3-benzoxazol-6-yl)-7-[(3S)-3-methylpiperazin-1-yl]-4H-quinolizin-4-one] returned a melting point of 115 to 117 °C. For the same compound, in series [1], the “EC1.5x for Smn protein expression” value was “*** (an EC1.5× between >0.3 μM and ≤1 μM is indicated by three stars (***))”; the “maximum fold (Fold) increase” value was “**** (a fold increase between >1.5 and ≤1.65 is indicated by four stars (****))”. The EC (1.5-fold increase) in series [2] is less than 0.1 µM.

Compound `Cc1cn2nc(-c3cc(=O)n4cc(C5=CCNCC5)ccc4n3)cc2c(C)n1` [Cpd 342, 2-(4,6-dimethylpyrazolo[1,5-a]pyrazin-2-yl)-7-(1,2,3,6-tetrahydropyridin-4-yl)-4H-pyrido[1,2-a]pyrimidin-4-one] gave a melting point of 207 to 210 °C. For the same compound, in series [1], the “EC1.5x for Smn protein expression” value is reported as “**** (an EC1.5x≤0.3 μM is indicated by four stars (****))” and the “maximum fold (Fold) increase” value was “***** (a fold increase >1.65 is indicated by five stars (*****))”. In addition, the EC (1.5-fold increase) in series [2] was less than 0.1 µM.

In the case of `Cc1nc2ccc(-c3cc(=O)n4nc(C5CCNCC5)ccc4n3)cc2s1.O=C(O)C(F)(F)F` [Cpd 380, 2-(2-methyl-1,3-benzothiazol-6-yl)-7-(piperidin-4-yl)-4H-pyrimido[1,2-b]pyridazin-4-one trifluoroacetate (1:1)], the melting point lay in the range of 230 to 235 °C. Also, in series [1], the “EC1.5x for Smn protein expression” value is “*** (an EC1.5× between >0.3 μM and ≤1 μM is indicated by three stars (***))”; the “maximum fold (Fold) increase” value was “**** (a fold increase between >1.5 and ≤1.65 is indicated by four stars (****))”. Besides, the EC (1.5-fold increase) in series [2] was in the range of 0.1 to 0.3 µM.

Regarding `COc1ccc(-c2cc(=O)n3nc(C4=CCNCC4)ccc3n2)cc1OC` [Cpd 398, 2-(3,4-dimethoxyphenyl)-7-(1,2,3,6-tetrahydropyridin-4-yl)-4H-pyrimido[1,2-b]pyridazin-4-one], the melting point lay within 195 to 200 °C. In series [1], the “EC1.5x for Smn protein expression” value was “** (an EC1.5× between >1 μM and ≤3 μM is indicated by two stars (**))”; the “maximum fold (Fold) increase” value was “***** (a fold increase >1.65 is indicated by five stars (*****))”. For the same compound, the EC (1.5-fold increase) in series [2] was in the range of 0.3 to 1 µM.

On to `COc1ccc(-c2cc(=O)n3cc(C4=CCNCC4)ncc3n2)cc1OC` [Cpd 402, 2-(3,4-dimethoxyphenyl)-7-(1,2,3,6-tetrahydropyridin-4-yl)-4H-pyrazino[1,2-a]pyrimidin-4-one], for which the melting point is 205 to 208 °C. Also, in series [1], the “EC1.5x for Smn protein expression” value was “** (an EC1.5× between >1 μM and ≤3 μM is indicated by two stars (**))”; the “maximum fold (Fold) increase” value was “**** (a fold increase between >1.5 and ≤1.65 is indicated by four stars (****))”. In addition, in series [2], the EC (1.5-fold increase) was less than 0.1 µM.

Regarding `CCCNC1CCN(c2cc(C)c3nc(-c4ccc(OC)c(OC)c4)cc(=O)n3c2)CC1` [Cpd 407, 2-(3,4-dimethoxyphenyl)-9-methyl-7-[4-(propylamino)piperidin-1-yl]-4H-pyrido[1,2-a]pyrimidin-4-one], the melting point lay in the range of 178 to 184 °C. Besides, the “maximum fold (Fold) increase” value in series [1] was “*** (a fold increase between >1.35 and ≤1.5 is indicated by three stars (***))”. Also, the EC (1.5-fold increase) in series [2] was less than 0.1 µM.

The record behind these values is patent publication US11753407B2, “Compounds for treating spinal muscular atrophy” (PTC Therapeutics, Inc., priority 2012, dated 2023).
